Columns and labels:
Homo sapiens = organism: Homo sapiens; test: Synergistic activation of retinoid acid receptor (RAR) transcriptional activation at 3 nM TTNPB; type: functional
[1] = Tmax after oral administration at 30 mg/kg in ICR mouse; type: ADME, organism-based; set-up: dose 30 mg/kg, route oral; conditions: in vivo
[2] = target: T1, Retinoic acid receptor gamma (Homo sapiens, UniProt P13631); test: Inhibition of 3[H]ATRA binding to retinoid acid receptor gamma expressed in CV-1 cells; type: cell-based
T1 sequence (P13631 whole entry): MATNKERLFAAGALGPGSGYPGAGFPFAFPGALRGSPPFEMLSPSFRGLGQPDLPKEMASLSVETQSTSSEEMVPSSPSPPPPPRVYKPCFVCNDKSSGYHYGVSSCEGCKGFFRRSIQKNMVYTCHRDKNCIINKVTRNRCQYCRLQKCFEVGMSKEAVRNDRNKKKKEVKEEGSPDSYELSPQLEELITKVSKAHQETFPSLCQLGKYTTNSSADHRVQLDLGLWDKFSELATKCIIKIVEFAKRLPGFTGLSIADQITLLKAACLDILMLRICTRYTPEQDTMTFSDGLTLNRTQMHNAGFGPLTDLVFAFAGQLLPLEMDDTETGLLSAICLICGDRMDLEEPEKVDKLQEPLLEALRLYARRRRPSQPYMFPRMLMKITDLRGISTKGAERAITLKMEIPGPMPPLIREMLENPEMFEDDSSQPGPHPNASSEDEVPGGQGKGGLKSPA

[3] = AUC (0-6 hr) after oral administration at 30 mg/kg in ICR mouse; type: ADME, organism-based; set-up: time < 6 hr, route oral, dose 30 mg/kg; conditions: plasma
Mus musculus = test: Cmax after oral administration at 30 mg/kg in ICR mouse; type: ADME, organism-based; set-up: dose 30 mg/kg, route oral; conditions: in vivo
[4] = target: T2, Retinoic acid receptor RXR-alpha (Homo sapiens, UniProt P19793); test: Antagonist activity against Retinoic acid receptor RXR-alpha expressed in CV-1 cell transcriptional activation assay; type: functional, cell-based
T2 sequence (P19793 whole entry): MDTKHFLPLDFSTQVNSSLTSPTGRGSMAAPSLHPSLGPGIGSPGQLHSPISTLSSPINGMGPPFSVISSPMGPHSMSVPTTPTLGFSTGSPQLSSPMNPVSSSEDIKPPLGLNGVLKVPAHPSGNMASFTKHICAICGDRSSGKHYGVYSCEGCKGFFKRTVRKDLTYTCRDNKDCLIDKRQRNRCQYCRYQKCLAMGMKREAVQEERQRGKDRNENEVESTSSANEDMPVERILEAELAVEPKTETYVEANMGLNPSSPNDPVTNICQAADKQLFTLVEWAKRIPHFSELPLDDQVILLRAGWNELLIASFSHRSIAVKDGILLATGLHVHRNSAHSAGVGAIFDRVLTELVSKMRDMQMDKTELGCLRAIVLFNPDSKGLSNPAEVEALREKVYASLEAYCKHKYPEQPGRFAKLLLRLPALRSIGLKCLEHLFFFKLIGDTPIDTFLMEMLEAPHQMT

RXR alpha/PPAR gamma = RXR alpha/PPAR gamma (Homo sapiens, UniProt P19793); test: Synergistic activation of BRL-49653 mediated PPAR gamma and retinoid X receptor alpha expressed in CV-1 cell transcriptional activation assay; type: functional, cell-based
Sequence of RXR alpha/PPAR gamma (P37231 whole entry, one chain of several): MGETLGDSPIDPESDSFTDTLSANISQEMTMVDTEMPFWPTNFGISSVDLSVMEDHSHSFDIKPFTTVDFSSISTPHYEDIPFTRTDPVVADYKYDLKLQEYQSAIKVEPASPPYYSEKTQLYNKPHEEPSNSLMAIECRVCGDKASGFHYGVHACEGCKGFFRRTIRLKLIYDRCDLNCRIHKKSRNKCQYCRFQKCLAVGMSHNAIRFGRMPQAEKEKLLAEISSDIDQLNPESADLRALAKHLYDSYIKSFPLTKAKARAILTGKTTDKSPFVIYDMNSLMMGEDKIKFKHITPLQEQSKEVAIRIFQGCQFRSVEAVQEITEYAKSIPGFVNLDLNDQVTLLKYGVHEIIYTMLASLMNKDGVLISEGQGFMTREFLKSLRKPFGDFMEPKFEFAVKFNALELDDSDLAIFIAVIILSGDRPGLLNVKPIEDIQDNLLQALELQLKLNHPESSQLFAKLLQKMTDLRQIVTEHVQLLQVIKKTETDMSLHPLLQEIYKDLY

[5] = target: T2, Retinoic acid receptor RXR-alpha; test: Agonist activity against Retinoic acid receptor RXR-alpha expressed in CV-1 cell transcriptional activation assay; type: functional, cell-based
[6] = target: T2, Retinoic acid receptor RXR-alpha; test: Inhibition of 3[H]9-cis-retinoic acid binding to Retinoic acid receptor RXR-alpha expressed in CV-1 cells; type: cell-based

Structure (SMILES): C/C(=C/C=C/C(C)=C/C(=O)O)c1cc(C(C)(C)C)cc(C(C)(C)C)c1OCC(F)F
- Synergy (Homo sapiens): 1.4
- Tmax [1]: 1 h
- Ki [2]: > 10000 nM
- AUC(0-t) at 6 h [3]: 2090 ng·h/mL
- Cmax (Mus musculus): 1200 ng/mL

Structure (SMILES): C/C(=C/C(F)=C/C(C)=C/C(=O)O)c1cc(C(C)(C)C)cc(C(C)(C)C)c1OCC(F)F
- Synergy (Homo sapiens): 8.9
- Ki [2]: > 10000 nM
- EC50 [4]: 8710 nM
- EC50 (RXR alpha/PPAR gamma): 249 nM
- EC50 [5]: 259 nM

Structure (SMILES): C/C(=C/C=C/C(C)=C(\F)C(=O)O)c1cc(C(C)(C)C)cc(C(C)(C)C)c1OCC(F)F
- Synergy (Homo sapiens): 1.5
- Ki [2]: > 10000 nM
- Ki [6]: 10.6 nM
- EC50 [4]: 3.4 nM
- EC50 (RXR alpha/PPAR gamma): 2.7 nM

Structure (SMILES): C/C(=C/C=C(F)/C(C)=C/C(=O)O)c1cc(C(C)(C)C)cc(C(C)(C)C)c1OCC(F)F
- Synergy (Homo sapiens): 2.5
- Ki [2]: > 10000 nM
- EC50 [4]: 4840 nM
- EC50 (RXR alpha/PPAR gamma): 143 nM

Structure (SMILES): CCOc1c(\C(=C/C=C/C(C)=C/C(=O)O)C(F)(F)F)cc(C(C)(C)C)cc1C(C)(C)C
- Synergy (Homo sapiens): 7
- Ki [6]: 50.3 nM
- EC50 [4]: 38 nM
- EC50 (RXR alpha/PPAR gamma): 167 nM

Structure (SMILES): CC(/C=C/C(F)=C(/C)c1cc(C(C)(C)C)cc(C(C)(C)C)c1OCC(F)F)=C\C(=O)O
- Synergy (Homo sapiens): 1.8
- Tmax [1]: 3 h
- Ki [2]: > 10000 nM
- Ki [6]: 7.8 nM
- EC50 [4]: 6.8 nM
- AUC(0-t) at 6 h [3]: 17800 ng·h/mL
- EC50 (RXR alpha/PPAR gamma): 6.4 nM
- Cmax (Mus musculus): 3690 ng/mL

Structure (SMILES): CCCCOc1c(\C(C)=C/C=C/C(=C/C(=O)O)C(F)(F)F)cc(C(C)(C)C)cc1C(C)(C)C
- Synergy (Homo sapiens): 1.3
- Ki [2]: > 10000 nM
- Ki [6]: 5210 nM
- EC50 [4]: 806 nM
- EC50 (RXR alpha/PPAR gamma): 359 nM

Structure (SMILES): CCOc1c(\C(C)=C/C=C/C(C)=C/C(=O)O)cc(C(C)(C)C)cc1C(C)(C)C
- Synergy (Homo sapiens): 2
- Ki [2]: 8570 nM
- EC50 [4]: 6.4 nM

Structure (SMILES): CCCCOc1c(\C(C)=C/C=C/C(C)=C/C(=O)O)cc(C(C)(C)C)cc1C(C)(C)C
- Synergy (Homo sapiens): 1.2
- Ki [2]: > 10000 nM
- Ki [6]: 3.8 nM
- EC50 [4]: 3.3 nM
- EC50 (RXR alpha/PPAR gamma): 9.2 nM

Source: ChEMBL document CHEMBL1136229, “Design and synthesis of fluorinated RXR modulators” (Bioorg Med Chem Lett, 2003)
